Each structure is given as a SMILES string.

The results in this text go back to publication PMC10837422, “Early onset diagnosis in Alzheimer’s disease patients via amyloid-β oligomers-sensing probe in cerebrospinal fluid” (Nature Communications, 2024).

Test [1] addresses T1, Amyloid-β 1–42 (Aβ1–42) oligomers (Homo sapiens, UniProt P05067).
T1 construct: gene APP; full-length Aβ1–42 synthetic peptide, oligomers
Kind of test: fluorescence saturation titration; hexamer fragment mapping assay. It counts as binding.

Test [2] deals with T2, Amyloid-β 1–42 (Aβ1–42) fibrils (Homo sapiens, UniProt P05067).
T2 construct: gene APP
Kind of test: ThT fluorescence turn-on during Aβ[…] self-assembly (reference dye). It counts as binding.

T2 sequence (P05067 672-713): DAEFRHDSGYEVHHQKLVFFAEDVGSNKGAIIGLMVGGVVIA
T1 sequence (P05067 672-713): as above

As a reminder, the Kd is a measure of binding affinity in units of concentration. In test [1], `CC(C)CC1=[O+][B-](F)(F)OC(/C=C/c2ccc3nc(N(C)C)ccc3c2)=C1` [Q-OB] returned a Kd of 0.303 ± 0.0947 µM.

As for `Cc1ccc2c(c1)sc(-c1ccc(N(C)C)cc1)[n+]2C` [ThT, thioflavin T], the “ThT fluorescence turn-on during Aβ1-42 self-assembly (reference dye)” value in test [2] is recorded as “matured Aβ aggregates formation, since ThT specifically detects cross-β-sheet via hydrophobic binding”.
